Laboratory results published in ChEMBL document CHEMBL3045227, “Development of 4-aminoquinoline-1,3,5-triazine conjugates as potent antibacterial agent through facile synthetic route” (2013).
Converted amounts (≈) assume the structure as drawn.

Columns and labels:
Format in all cases: functional
Proteus vulgaris = test: Antibacterial activity against Proteus vulgaris NCIM 2027 assessed as growth inhibition after 24 hr by NCCLS broth dilution method; conditions: NCIM 2027, 24 h
Proteus mirabilis = test: Antibacterial activity against Proteus mirabilis NCIM 2241 assessed as growth inhibition after 24 hr by NCCLS broth dilution method; conditions: NCIM 2241, 24 h
Escherichia coli = test: Antibacterial activity against Escherichia coli NCIM 2065 assessed as growth inhibition after 24 hr by NCCLS broth dilution method; conditions: NCIM 2065, 24 h
Pseudomonas aeruginosa = test: Antibacterial activity against Pseudomonas aeruginosa NCIM 2036 assessed as growth inhibition after 24 hr by NCCLS broth dilution method; conditions: NCIM 2036, 24 h
Bacillus cereus = test: Antibacterial activity against Bacillus cereus NCIM 2156 assessed as growth inhibition after 24 hr by NCCLS broth dilution method; conditions: NCIM 2156, 24 h
Bacillus subtilis = test: Antibacterial activity against Bacillus subtilis NCIM 2063 assessed as growth inhibition after 24 hr by NCCLS broth dilution method; conditions: NCIM 2063, 24 h
Staphylococcus aureus = test: Antibacterial activity against Staphylococcus aureus NCIM 2079 assessed as growth inhibition after 24 hr by NCCLS broth dilution method; conditions: NCIM 2079, 24 h

MIC (Proteus vulgaris) [µg/mL] | MIC (Proteus mirabilis) [µg/mL] | MIC (Escherichia coli) [µg/mL] | MIC (Pseudomonas aeruginosa) [µg/mL] | MIC (Bacillus cereus) [µg/mL] | MIC (Bacillus subtilis) [µg/mL] | MIC (Staphylococcus aureus) [µg/mL] | Structure (SMILES)
12.5 (≈ 19.9 µM) | 3.12 (≈ 4.98 µM) | 12.5 (≈ 19.9 µM) | 6.25 (≈ 9.97 µM) | 3.12 (≈ 4.98 µM) | 6.25 (≈ 9.97 µM) | 12.5 (≈ 19.9 µM) | Cc1ccc(Nc2nc(Nc3ccc([N+](=O)[O-])cc3)nc(N3CCN(C(=S)Nc4ccnc5cc(Cl)ccc45)CC3)n2)cc1
3.12 (≈ 5.15 µM) | 12.5 (≈ 20.6 µM) | 6.25 (≈ 10.3 µM) | 12.5 (≈ 20.6 µM) | 3.12 (≈ 5.15 µM) | 6.25 (≈ 10.3 µM) | 3.12 (≈ 5.15 µM) | O=[N+]([O-])c1ccc(Nc2nc(N3CCOCC3)nc(N3CCN(C(=S)Nc4ccnc5cc(Cl)ccc45)CC3)n2)cc1
12.5 | 6.25 | 25 | 12.5 | 6.25 | 6.25 | 25 | NNc1nc(Nc2ccc([N+](=O)[O-])cc2)nc(N2CCN(C(=S)Nc3ccnc4cc(Cl)ccc34)CC2)n1.O
12.5 (≈ 20.5 µM) | 12.5 (≈ 20.5 µM) | 6.25 (≈ 10.2 µM) | 6.25 (≈ 10.2 µM) | 3.12 (≈ 5.11 µM) | 6.25 (≈ 10.2 µM) | 25 (≈ 40.9 µM) | NC(=S)NNc1nc(Nc2ccc([N+](=O)[O-])cc2)nc(N2CCN(C(=S)Nc3ccnc4cc(Cl)ccc34)CC2)n1
25 (≈ 39.9 µM) | 12.5 (≈ 19.9 µM) | 6.25 (≈ 9.97 µM) | 6.25 (≈ 9.97 µM) | 12.5 (≈ 19.9 µM) | 12.5 (≈ 19.9 µM) | 25 (≈ 39.9 µM) | Cc1ccccc1Nc1nc(Nc2ccc([N+](=O)[O-])cc2)nc(N2CCN(C(=S)Nc3ccnc4cc(Cl)ccc34)CC2)n1
12.5 (≈ 20.4 µM) | 6.25 (≈ 10.2 µM) | 12.5 (≈ 20.4 µM) | 6.25 (≈ 10.2 µM) | 3.12 (≈ 5.1 µM) | 12.5 (≈ 20.4 µM) | 12.5 (≈ 20.4 µM) | O=[N+]([O-])c1ccc(Nc2nc(Nc3ccccc3)nc(N3CCN(C(=S)Nc4ccnc5cc(Cl)ccc45)CC3)n2)cc1
6.25 (≈ 10.5 µM) | 6.25 (≈ 10.5 µM) | 12.5 (≈ 21 µM) | 12.5 (≈ 21 µM) | 6.25 (≈ 10.5 µM) | 3.12 (≈ 5.25 µM) | 12.5 (≈ 21 µM) | NC(=O)NNc1nc(Nc2ccc([N+](=O)[O-])cc2)nc(N2CCN(C(=S)Nc3ccnc4cc(Cl)ccc34)CC2)n1
25 (≈ 42.1 µM) | 12.5 (≈ 21 µM) | 12.5 (≈ 21 µM) | 12.5 (≈ 21 µM) | 12.5 (≈ 21 µM) | 25 (≈ 42.1 µM) | 25 (≈ 42.1 µM) | NCCCNc1nc(Nc2ccc([N+](=O)[O-])cc2)nc(N2CCN(C(=S)Nc3ccnc4cc(Cl)ccc34)CC2)n1
50 (≈ 79.5 µM) | 50 (≈ 79.5 µM) | 50 (≈ 79.5 µM) | 25 (≈ 39.7 µM) | 25 (≈ 39.7 µM) | 25 (≈ 39.7 µM) | 100 (≈ 159 µM) | O=[N+]([O-])c1ccc(Nc2nc(Nc3ccc(O)cc3)nc(N3CCN(C(=S)Nc4ccnc5cc(Cl)ccc45)CC3)n2)cc1

Structure (SMILES) | MIC (Proteus vulgaris) [µg/mL] | MIC (Proteus mirabilis) [µg/mL] | MIC (Escherichia coli) [µg/mL] | MIC (Pseudomonas aeruginosa) [µg/mL] | MIC (Bacillus cereus) [µg/mL] | MIC (Bacillus subtilis) [µg/mL] | MIC (Staphylococcus aureus) [µg/mL]
CC1COc2c(N3CCN(C)CC3)c(F)cc3c(=O)c(C(=O)O)cn1c23 (stereo not given) [OFLOXACIN] | 3.12 (≈ 8.65 µM) | 3.12 (≈ 8.65 µM) | 3.12 (≈ 8.65 µM) | 6.25 (≈ 17.3 µM) | 6.25 (≈ 17.3 µM) | 3.12 (≈ 8.65 µM) | 6.25 (≈ 17.3 µM)
